Reference: paper PMC9394284, “Discovery of Novel Dual Adenosine A2A and A1 Receptor Antagonists with 1H-Pyrazolo[3,4-d]pyrimidin-6-amine Core Scaffold as Anti-Parkinson’s Disease Agents” (Pharmaceuticals, 2022)

What was measured:
hERG = biological target: T1, hERG (Homo sapiens, UniProt Q12809); assay: hERG manual patch clamp in hERG-expressing HEK cells; type: cell-based; settings: read-out: hERG inhibition IC50
T1 construct: host or cells: HEK cells stably expressing hERG
Experimental: hERG (human-ether-a-go-go) liability was investigated in an hERG-expressing HEK cell line using the manual patch clamp method to assess the potential cardiotoxicity of 11o.
hERG ion channel-blocking profile of acute exposure to 11o was performed in stably expressing HEK cells at Nova Research Laboratories (New Orleans, LA, USA). Briefly, cloned equivalent of the human IKr, hERG, was used. Cells were obtained from Cytogentrics Bioscience GmbH (Jachim-Jungius-Strafe 9, 18,059 Rostock, Germany). Internal and external recording solutions as well as data acquisition and analysis were as previously described.

hA1 receptor = biological target: T2, hA1 receptor (Homo sapiens, UniProt P30542); assay: radioligand binding to human A1 receptors, CHO-K1 membranes, [3H]DPCPX
T2 sequence (P30542 1-326): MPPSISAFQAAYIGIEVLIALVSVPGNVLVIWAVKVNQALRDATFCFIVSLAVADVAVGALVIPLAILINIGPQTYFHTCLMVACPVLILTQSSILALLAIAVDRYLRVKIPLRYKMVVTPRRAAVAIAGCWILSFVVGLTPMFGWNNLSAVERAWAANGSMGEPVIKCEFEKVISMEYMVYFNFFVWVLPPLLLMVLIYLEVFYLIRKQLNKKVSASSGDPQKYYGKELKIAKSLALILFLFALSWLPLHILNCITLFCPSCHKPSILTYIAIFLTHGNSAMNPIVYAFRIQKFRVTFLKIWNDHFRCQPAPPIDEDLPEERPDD
Experimental: (§1) The radioligand-binding assays for adenosine receptors were performed at Eurofins Discovery Services (Panlabs, Taiwan). Briefly, stock solutions of the compounds were prepared in DMSO and further diluted with the incubation buffer to the desired concentration. Final DMSO concentrations in the assay were 1.0%. For adenosine A1 screening, a 10 μg aliquots of membrane preparations from human recombinant CHO-K1 cells stably expressing A1 receptors (CHO-K1-hA1AR clone3, EPDST, R200510) were incubated with 1 nM [^3H]DPCPX in incubation buffer (20 mM HEPES, pH 7.4, 10 mM MgCl2, 100 mM NaCl 1.40 nM) for 90 min at 25 °C. Nonspecific binding was estimated in the presence of 100 μM R(-)-PIA. Membranes were filtered and washed 3 times and the filters were counted to determine specifically bound [^3H]DPCPX. Chemical compounds were screened at 10 μM. For A2A screening, membrane preparations from human recombinant HEK-293 cells stably expressing A2A receptors (PerkinElmer, RBHA2AM) were incubated with 0.05 μM [^3H]CGS-21680 in incubation buffer (50 mM Tris-HCl, pH 7.4, 10 mM MgCl2, 1 mM EDTA, 2 U/mL Adenosine Deaminase) for 90 min at 25 °C. Nonspecific binding was estimated in the presence of 50.0 μM NECA. Membranes were filtered and washed 3 times and the filters were counted to determine [^3H]CGS-21680 specifically bound. For A2B screening, membrane preparations from human recombinant HEK-293 cells stably expressing A2B receptors (PerkinElmer, ES-013-M) were incubated with 1.6 nM [^3H]MRS1754 in incubation buffer (50 mM Tris-HCl, pH 6.5, 5 mM MgCl2, 1 mM EDTA, 0.01 % Bacitracin) for 90 min at 25 °C. Nonspecific binding was estimated in the presence of 100 μM NECA. Membranes were filtered and washed 3 times and the filters were counted to determine [^3H]MRS1754 specifically bound. For A3 screening, membrane preparations from human recombinant CHO-K1 cells stably expressing A3 receptors (PerkinElmer, ES-012-M) were incubated with 0.5 nM [^125I]AB-MECA in incubation buffer (25 mM HEPES, pH 7.4, 5 mM MgCl2, 1 mM CaCl2, 0.1 % BSA) for 60 min at 25 °C. Nonspecific binding was estimated in the presence of 1.0 μM IB-MECA.
(§2) IC50 values were determined by a nonlinear, least-squares regression analysis using MathIQ^TM (ID Business Solutions Ltd., Guildford, UK). Where inhibition constants (Ki) were presented, the Ki values were calculated using Cheng and Prusoff equation [18] using the observed IC50 of the compound, the concentration of radioligand employed in the assay, and the historical values for the KD of the ligand (obtained experimentally at Eurofins Panlabs, Inc.). The Hill coefficient (nH), which defines the slope of the competitive binding curve, was calculated using MathIQ^TM.

A2B receptors = biological target: T3, A2B receptors (Homo sapiens, UniProt P29275); assay: radioligand binding to human A2B receptors, HEK-293 membranes, [3H]MRS1754
T3 construct: purchased PerkinElmer ES-013-M
T3 sequence (P29275 1-332): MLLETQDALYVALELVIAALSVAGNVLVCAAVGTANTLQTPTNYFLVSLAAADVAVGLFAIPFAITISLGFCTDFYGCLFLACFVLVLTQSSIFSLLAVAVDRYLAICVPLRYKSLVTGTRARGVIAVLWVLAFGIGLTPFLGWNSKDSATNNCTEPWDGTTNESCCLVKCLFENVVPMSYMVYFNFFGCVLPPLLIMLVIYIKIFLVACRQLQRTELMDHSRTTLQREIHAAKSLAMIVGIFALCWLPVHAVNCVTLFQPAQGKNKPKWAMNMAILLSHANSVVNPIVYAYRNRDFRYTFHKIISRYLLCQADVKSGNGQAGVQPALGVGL
Experimental: as §1, with “For A2B screening, membrane preparations from human recombinant HEK-293 cells stably expressing A2B receptors (PerkinElmer, ES-013-M) were incubated with 1.6 nM [^3H]MRS1754 in incubation buffer (50 mM Tris-HCl, pH 6.5, 5 mM MgCl2, 1 mM EDTA, 0.01 % Bacitracin) for 90 min at 25 °C. Nonspecific binding was estimated in the presence of 100 μM NECA.” left out, “For A3 screening, membrane preparations from human recombinant CHO-K1 cells stably expressing A3 receptors (PerkinElmer, ES-012-M) were incubated with 0.5 nM [^125I]AB-MECA in incubation buffer (25 mM HEPES, pH 7.4, 5 mM MgCl2, 1 mM CaCl2, 0.1 % BSA) for 60 min at 25 °C. Nonspecific binding was estimated in the presence of 1.0 μM IB-MECA.” left out
as §2

A3 receptors = biological target: T4, A3 receptors (Homo sapiens, UniProt P0DMS8); assay: radioligand binding to human A3 receptors, CHO-K1 membranes, [125I]AB-MECA
T4 construct: purchased PerkinElmer ES-012-M
T4 sequence (P0DMS8 1-318): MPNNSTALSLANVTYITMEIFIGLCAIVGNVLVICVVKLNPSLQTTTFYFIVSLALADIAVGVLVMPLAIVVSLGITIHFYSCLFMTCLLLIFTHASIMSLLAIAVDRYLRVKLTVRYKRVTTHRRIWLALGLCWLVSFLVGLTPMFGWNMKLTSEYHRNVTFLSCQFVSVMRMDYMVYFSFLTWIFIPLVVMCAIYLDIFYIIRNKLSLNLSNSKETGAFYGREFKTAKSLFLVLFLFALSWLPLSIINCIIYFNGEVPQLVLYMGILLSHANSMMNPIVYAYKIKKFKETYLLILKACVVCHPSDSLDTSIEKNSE
Experimental: as §1, with “For A2B screening, membrane preparations from human recombinant HEK-293 cells stably expressing A2B receptors (PerkinElmer, ES-013-M) were incubated with 1.6 nM [^3H]MRS1754 in incubation buffer (50 mM Tris-HCl, pH 6.5, 5 mM MgCl2, 1 mM EDTA, 0.01 % Bacitracin) for 90 min at 25 °C. Nonspecific binding was estimated in the presence of 100 μM NECA.” left out, “For A3 screening, membrane preparations from human recombinant CHO-K1 cells stably expressing A3 receptors (PerkinElmer, ES-012-M) were incubated with 0.5 nM [^125I]AB-MECA in incubation buffer (25 mM HEPES, pH 7.4, 5 mM MgCl2, 1 mM CaCl2, 0.1 % BSA) for 60 min at 25 °C. Nonspecific binding was estimated in the presence of 1.0 μM IB-MECA.” left out
as §2

[1] = average of duplicate experiments

T1 sequence (Q12809 whole entry): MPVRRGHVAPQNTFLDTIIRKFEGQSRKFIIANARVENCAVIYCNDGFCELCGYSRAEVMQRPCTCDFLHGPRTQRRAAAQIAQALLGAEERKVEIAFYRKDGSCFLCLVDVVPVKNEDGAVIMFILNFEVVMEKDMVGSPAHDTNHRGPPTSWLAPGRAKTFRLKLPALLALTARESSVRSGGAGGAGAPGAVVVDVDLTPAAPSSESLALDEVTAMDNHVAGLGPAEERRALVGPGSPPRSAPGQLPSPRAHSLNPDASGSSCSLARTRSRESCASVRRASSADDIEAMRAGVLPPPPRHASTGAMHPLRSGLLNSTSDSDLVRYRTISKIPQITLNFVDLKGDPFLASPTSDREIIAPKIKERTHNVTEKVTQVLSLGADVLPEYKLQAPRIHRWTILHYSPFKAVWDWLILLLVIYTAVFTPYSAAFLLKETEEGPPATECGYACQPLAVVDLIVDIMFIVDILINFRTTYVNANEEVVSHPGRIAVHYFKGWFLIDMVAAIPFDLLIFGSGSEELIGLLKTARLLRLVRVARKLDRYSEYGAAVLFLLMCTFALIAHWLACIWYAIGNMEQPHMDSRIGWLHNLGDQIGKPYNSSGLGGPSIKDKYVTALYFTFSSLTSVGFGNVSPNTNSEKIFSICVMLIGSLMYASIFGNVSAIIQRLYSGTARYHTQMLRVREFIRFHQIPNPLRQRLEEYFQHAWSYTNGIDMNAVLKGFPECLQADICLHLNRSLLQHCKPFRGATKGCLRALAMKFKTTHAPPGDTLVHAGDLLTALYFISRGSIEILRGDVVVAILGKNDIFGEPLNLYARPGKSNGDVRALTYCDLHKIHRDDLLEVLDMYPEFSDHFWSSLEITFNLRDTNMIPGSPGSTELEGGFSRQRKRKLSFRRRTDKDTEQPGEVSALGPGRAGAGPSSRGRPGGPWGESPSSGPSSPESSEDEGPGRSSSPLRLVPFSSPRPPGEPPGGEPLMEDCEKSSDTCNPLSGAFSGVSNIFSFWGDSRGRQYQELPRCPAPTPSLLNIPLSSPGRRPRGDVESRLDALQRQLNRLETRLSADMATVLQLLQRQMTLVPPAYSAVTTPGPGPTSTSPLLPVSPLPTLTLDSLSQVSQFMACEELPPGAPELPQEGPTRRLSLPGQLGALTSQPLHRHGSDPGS

Cc1cc(Cn2ncc3c(-c4cccc(C#N)c4F)nc(N)nc32)ccc1N [11o, 3-(6-Amino-1-(4-amino-3-methylbenzyl)-1H-pyrazolo[3,4-d]pyrimidin-4-yl)-2-fluorobenzonitrile]
IC50 (hERG): 116000 nM | nH (Hill coefficient), A1 (hA1 receptor): 1.17 | IC50 (hA1 receptor; [1]): 94 nM | Ki (hA1 receptor; [1]): 55 nM | nH (Hill coefficient), A2B (A2B receptors): 0.98 | IC50 (A2B receptors; [1]): 1220 nM | Ki (A2B receptors; [1]): 400 nM | nH (Hill coefficient), A3 (A3 receptors): 0.44 | IC50 (A3 receptors; [1]): 1130 nM | Ki (A3 receptors; [1]): 1050 nM
